# According to ChEMBL document CHEMBL1158293, “Isolation and structure of prorocentrolide B, a fast-acting toxin from Prorocentrum maculosum” (J Nat Prod, 1996):
# Tested on: Mus musculus
# Assay: Toxicity in ip dosed CD1 mouse
# Format: organism-based
# Conditions: in vivo
smiles,measurement,value
C=C1CCC2OC(CC3=CC4/C(C)=C/CC(C)CC(/C=C/C(O)C5CC(O)C(O)C(CCC(O)/C=C/C(C)=C/CCC6=NCCC(C3)C64C)O5)OC(=O)CC3OC(C(O)CC1C)C(O)C3OS(=O)(=O)O)C(O)CC2O (stereo unspecified) [PROROCENTROLIDE B],Activity,Toxic
